One molecule from patent publication US20110086923A1, “Method to increase oxygen in male and female sexual organs through the topical use of perfluorocarbons” (priority 2009, published 2011) can be followed below.

Structures are written as SMILES.

The nature of this series: Physical properties of F-tert-butylcyclohexane. Type of series: physicochemical. From the text: Oxycyte™ is a perfluorocarbon emulsion oxygen carrier. The active ingredient in Oxycyte™, perfluoro(tert-butylcyclohexane) (C10F20, MW-500), also known as F-tert-butylcyclohexane or “FtBu”, is a saturated alicyclic PFC.
Oxycyte™ can be used as a PFC composition in the methods and uses described herein. Physical properties of F-tert-butylcyclohexane are as follows: […]

In the case of `FC(F)(F)C(C(F)(F)F)(C(F)(F)F)C1(F)C(F)(F)C(F)(F)C(F)(F)C(F)(F)C1(F)F` [Perfluoro(tert-butylcyclohexane), perfluoro(tert-butylcyclohexane)], the Density is given as 1.97 g/mL, the “Kinematic Viscosity” value came to 5.378 cP, the lipophilicity result is reported as “non-lipophilic” and the water solubility result was “non-water soluble”. In addition, where the note is “25° C.”, the “Vapor Pressure @ 25° C.” value is 3.8 mmHg. For the same molecule, the “Vapor Pressure @ 37° C.” value (37° C.) is 4.4 mmHg.
